This note sets out measurements from article PMC6562366 (Molecular Therapy Oncolytics, 2019).

The test has as its target PIM-2 (Homo sapiens, UniProt Q9P1W9). Briefly: radiometric filter-binding kinase assay, recombinant kinase, dose-response. It counts as biochemical.

The structures appear in SMILES notation.

By IC50 is commonly meant the point on the concentration scale where inhibition reaches its midpoint.

Sequence of PIM-2 (Q9P1W9 whole entry): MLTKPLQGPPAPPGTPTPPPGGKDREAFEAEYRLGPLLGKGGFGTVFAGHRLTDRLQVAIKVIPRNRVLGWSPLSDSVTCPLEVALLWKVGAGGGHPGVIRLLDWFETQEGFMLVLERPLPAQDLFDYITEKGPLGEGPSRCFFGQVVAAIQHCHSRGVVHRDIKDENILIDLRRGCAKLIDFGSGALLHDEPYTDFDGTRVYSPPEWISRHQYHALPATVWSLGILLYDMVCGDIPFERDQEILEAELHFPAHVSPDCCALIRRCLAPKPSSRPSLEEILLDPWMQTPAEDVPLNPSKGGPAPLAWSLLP

Turning to `C/C(O)=C(\C#N)C(=O)Nc1ccc(C(F)(F)F)cc1` [Ter, Teriflunomide], the IC50 worked out at 255 µM.
